For one compound, mortality and Mortality results are on record in patent US10085449B2, “N-[1-((6-chloropyridin-3-yl)methyl)pyridin-2(1H)-ylidene]-2,2,2- trifluoroacetamide for control of agricultural/horticultural pests” (priority 2010, dated 2018).

Read-outs that look alike come from different tables or passages of the source.

Holding throughout (format): in vivo
Data set [1] relates to diamondback moth. Description: whole plant or invertebrate. The note with it: Plutella xylostella, foliar. The method, boiled down: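 Cabbage leaf discs sprayed with compound in 50% acetone/water with 0.05% Tween 20, air-dried, then infested with second-instar larvae. Held at 25 °C under 16 h light/8 h dark; mortality from dead/(live+dead) counts after 3 days, two replicates.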

The test system of data set [2] is cotton aphid. Put plainly: whole plant or invertebrate. The settings on record: Aphis gossypii, foliar. In a few lines: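 Cucumber leaf discs (2.0 cm) sprayed with compound in 50% acetone/water with 0.05% Tween 20, air-dried, then infested with first-instar cotton aphids. Held at 25 °C under 16 h light/8 h dark; mortality counted after 3 days, two replicates.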

In data set [3] the test system is rice leaf bug. Put plainly: whole plant or invertebrate. The note with it: foliar, 72 h. The method, boiled down: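 Four-day wheat seedling shoots dipped 30 s in compound solution (50% acetone/water, 0.05% Tween 20), air-dried, then infested with two second-instar larvae per glass cylinder at 25 °C, 16 h light/8 h dark. Mortality (%) counted after 3 days.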
The test system of data set [4] is brown-winged green bug. Description: Brown-winged green bug control test. The settings on record: 50 ppm foliar application on young apples, adults, 6 days after release. Here is the method: Young apples that had been collected in the field were sprayed with solutions of the inventive compounds at a predetermined concentration prepared to 50% acetone/water (containing 0.05% Tween 20). The treated fruits were air-dried, placed in plastic cups and two adult brown-winged green bugs were released into each cup. Following release of the insects, the fruits and insects were held in an incubation chamber at 25° C. (16-hour period of light, 8-hour dark period). Six days after released, the numbers of live and dead insects were counted, and the mortality was calculated from the following formula. Mortality (%)=[number of dead insects/(number of live insects+number of dead insects)]×100

Data set [5] has as its system small brown planthopper having a low susceptibility to insecticides. Description: Small brown planthopper control test, pests having a low susceptibility to insecticides (soil drenching). The settings on record: both lines (susceptible and field-collected). As for the experimental part: Rice seedlings grown in pots were subjected to soil drenching treatment with solutions of the inventive compounds at a predetermined concentration prepared to 10% acetone/water. Three days after treatment, ten second-instar small brown planthopper larvae having a low susceptibility to insecticides were released onto each seedling. The seedlings and insects were then held in an incubation chamber at 25° C. (16-hour period of light, 8-hour dark period). Three days after released, the numbers of live and dead insects were counted, and the mortality was calculated from the following formula. The test was carried out as two replications. Mortality (%)=[number of dead insects/(number of live insects+number of dead insects)]×100
The pests used in this test were insects that had been raised indoors for successive generations over a long period of time (susceptible line), and insects that had been raised indoors for successive generations after being collected in 2006 within Kumamoto Prefecture (field-collected line).

Setting [6] is: read-out: Insecticidal effects (mortality), diamondback moth second-instar larvae.
The mark [7] stands for this setting: read-out: Insecticidal effects (mortality), cotton aphid first-instar larvae.

One may read the mortality as the share of the test organisms that died. For the compound `O=C(N=c1ccccn1Cc1ccc(Cl)nc1)C(F)(F)F` [Compound 212, N-[1-((6-chloropyridin-3-yl)methyl)pyridin-2(1H)-ylidene]-2,2,2-trifluoroacetamide], the mortality at 20 ppm is 100% in data set [1] (setting [6]); 100% in data set [2] (setting [7]); at least 80% in data set [2] (in Cucumis sativus, 72 h). For the same compound, the mortality at 100 ppm is 100% in data set [1] (setting [6]); at least 80% in data set [1] (in Brassica oleracea, 72 h); 100% in data set [2] (setting [7]); at least 80% in data set [2] (in Cucumis sativus, 72 h). In addition, the mortality at 500 ppm in data set [1] (setting [6]) was 100%; in data set [1] (in Brassica oleracea, 72 h) it was at least 80%; in data set [2] (setting [7]), 100%; in data set [2] (in Cucumis sativus, 72 h) it was at least 80%. The mortality at 1.25 ppm in data set [2] (setting [7]) came out at 100%. The mortality at 5 ppm in data set [2] (setting [7]) amounted to 95%. Further, in data set [3], the mortality at 50 ppm was at least 80%. The Mortality entry in data set [4] was “at least 80%”; in data set [5] (0.005 mg/seedling soil drenching), “at least 90%”; in data set [5] (0.01 mg/seedling soil drenching) it was 100%.
